# Assay results from article PMC10813753 (Biology, 2024).
# pIC50: −log10 of the molar value.
# Assays:
# [1] = system: PC-3 cells (prostate tumor); assay: MTT viability assay PC-3; type: cell-based, human; conditions: for selectivity index (SI), prostate tumor PC3 versus prostate non-tumor RWPE-1: from MTT IC50 values
# Method: A panel of five tumor cell lines and two normal cell lines was used to preliminarily test the cytotoxicity of compounds 1–4, and the experiments were conducted as previously reported. All human cell lines were acquired from American Type Culture Collection (ATCC): tumor PC-3 and DU145 (prostate), HeLa (cervix), MCF7 (breast) and HT29 (colorectal) and healthy HFF-1 (fibroblast) and RWPE-1 (prostate). The cell catalogue reference and culture media used in the experiments were CRL-1435^TM, RPMI (PC-3), HTB-81™, RPMI (DU145), CCL-2^TM, DMEM (HeLa), HTB-22^TM, DMEM (MCF-7), HTB-38^TM, modified McCoy’s 5a medium, Catalogue No. 30-2007 (HT29), SCRC-1041^TM, DMEM (HFF-1) and CRL-11609^TM, Keratinocyte-SFM (RWPE-1). Culture media were purchased from Merck: RPMI-1640, DMEM + 10% FBS (Fetal Bovine Serum) + […] (penicillin/streptomycin/amphotericin B). Media and supplements for RWPE-1 were from ThermoFisher (17005075, Madrid, Spain). MCF7 cells were additionally supplemented with insulin (0.001 mg/mL in 500 mL media). Cells were kept at 37 °C (5% CO2), and culture media were renewed three times per week. When the cells reached 80–100% confluence, they were trypsinized and centrifuged, and the concentration was adjusted to each experiment. Cells were seeded at a density of ~10,000 cells/well into 24-well plates. The cells were treated with ligands 1–4 or the cytotoxic agents PhenQE8, PhenDC3 or cisplatin at different concentrations (10 nM–100 μM). Compound solutions were freshly prepared using the appropriate culture medium. Triplicate experiments were run. For MTT viability assays, after 72 h incubation, 50 μL of MTT (5 mg/mL) was added, and an additional incubation of 4 h was allowed. The medium in each well was then replaced by DMSO, and the absorbance was measured at 570 nm using an ELISA plate reader. Absorbances were normalized using negative controls (untreated cells, in triplicate, with a maximum of 0.9% DMSO content). Dose–response curves were obtained by plotting the percentage of viable cells versus logarithmic compound concentration. IC50 values were determined using Kaleidagragh^TM (3.52) software by adjusting the data to Equation 1/(1 + 10^(m2*(log(m1) − x))); m1 = 0.000003; m2 = 1.
# [2] = system: G4 Tel22 telomeric quadruplex DNA; assay: Equilibrium dialysis (non-competition and competition), Tel22; type: binding, human; conditions: for Kapp (Tel22): 10 mM potassium phosphate, 100 mM KCl, pH 7.2
# Method: Equilibrium dialysis experiments were conducted with unlabeled quadruplex DNA and/or with dsDNA sequences as previously reported. G4 sequence Tel22 is 5′-A(GGGTTA)3GGG-3′, and ds17 is 5′-GGG TTA CTA CGA ACT GG-3′/5′-CCA GTT CGT AGT AAC CC-3′. The buffering system employed contained 10 mM potassium phosphate buffer and 100 mM of KCl (pH = 7.2). DNA solution concentrations were determined at 90 °C through UV-visible spectrophotometry using the λmax values and extinction coefficients provided by IDT®. Extinction coefficients of TSC ligand 1 were calculated in water and in buffer in the absence and in the presence of 1% (w/v) triton X-100. Competition and non-competition dialysis experiments were carried out using the protocol described by Chaires, with minor modifications. Dialysis bags (Biotech Regenerated Cellulose (RC) membrane, part number 133192, Spectrum Laboratories, Inc., Fisher, Madrid, Spain) with a 0.2 mL volume were used, with G4 Tel22 or duplex ds17 DNA at a concentration of 75 μM, in monomeric units. The dialysis bags were placed in a beaker containing 200 mL of a solution of compound 1 (2 μM) in buffer. The beaker was sealed with Parafilm, and the solution was allowed to equilibrate at room temperature (22 °C) for 24 h with continuous stirring. Then, the contents of the dialysis bags were transferred into microcentrifuge tubes, and triton X-100 was added (1% (w/v) final concentration). After 2 h equilibration at room temperature, the total concentration of the ligand (Ct) was determined using UV-visible spectroscopy. The concentration of free compound 1 (Cf) was also determined spectrophotometrically from the dialysate solution. The concentration of the DNA-bound compound (Cb) was then calculated using the equation Cb = Ct − Cf, and Kapp was determined.
# Assays were performed at room temperature with ~2 μM solutions of 1, equilibrated with 75 μM (in monomeric units, tetrads or base pairs, respectively) of the tested DNA sequence for 24 h, in a buffer containing 100 mM KCl. Afterwards, the surfactanct triton X-100 was added to the solutions contained in the dialysis bags, and the recording of the UV-visible spectra was used to determine the concentrations of free and DNA-bound ligands for each situation: Tel22, ds17 or competition experiment Tel22-ds17. The concentration of DNA-bound ligand was determined based on at least two different experiments performed in duplicate or triplicate. […]
substance,measurement,setting,value
"2,2′-(1,10-Phenanthroline-2,9-diyl)-bis(methylene)-bis(hydrazine-1-carbothioamide) [compound 1]",pIC50,"[1]; MTT, 72 h",4.74
same,"selectivity index (SI), prostate tumor PC3 versus prostate non-tumor RWPE-1",[1],5
same,"selectivity index (SI), prostate tumor PC3 versus prostate non-tumor RWPE-1",[1]; listed as neutral derivative,~ 5
same,Kapp (Tel22),[2]; competition dialysis (1 + Tel22 + ds17),1.2 ± 0.1 (M^−1) × 10^−5
same,binding selectivity Kapp (Tel22)/Kapp (ds17),[2]; competitive assay,~24 fold
same,Kapp (Tel22),"[2]; non-competition dialysis (1 + Tel22), apparent association constant, order 10^5 M^−1",1.1 ± 0.1 (M^−1) × 10^−5
same,apparent association constant to telomeric quadruplex,"[2]; order of magnitude, equilibrium dialysis",~10^5 M^−1
